The target of this assay is T1, renin (Homo sapiens, UniProt P00797).
T1 sequence (P00797 67-406): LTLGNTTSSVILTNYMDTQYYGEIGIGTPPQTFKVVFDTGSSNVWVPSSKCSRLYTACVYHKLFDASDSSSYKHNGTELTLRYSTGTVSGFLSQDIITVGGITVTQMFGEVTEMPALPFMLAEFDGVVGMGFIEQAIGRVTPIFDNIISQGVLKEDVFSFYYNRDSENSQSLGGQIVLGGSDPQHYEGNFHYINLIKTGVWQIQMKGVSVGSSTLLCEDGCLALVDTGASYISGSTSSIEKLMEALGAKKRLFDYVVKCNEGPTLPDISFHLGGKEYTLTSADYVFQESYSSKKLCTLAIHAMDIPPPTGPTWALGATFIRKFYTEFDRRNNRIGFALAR
In words: in vitro renin inhibition, radioimmunoassay for angiotensin I. The note with it: incubated for two hours at 37° in the presence of angiotensinogen, read-out: IC50 (molar concentration of test compound causing a 50% inhibition of the renin activity). In kind it is biochemical. Here is the method:
The compounds of the present invention are valuable because of their ability to inhibit renin in an in vitro assay. Activity is determined by a standard radioimmunoassay for angiotensin I. In the assay, the enzyme renin, incubated for two hours at 37° in the presence of a substrate, angiotensinogen, generates the product angiotensin I. Test compounds are added to the incubation mixture. Relative activity is reported as the IC50, which is the molar concentration of test compound causing a 50% inhibition of the renin activity.
The in vitro test employed is more fully described in "Methods in Enzymatic Analysis", Bergmeyer, J., and Grass, N., eds., 3rd edition Weinheim: Verlag Chemie, pp. 251-258 (1984).

The structures appear in SMILES notation.

With `CC(C)C[C@H](NC(=O)[C@H](Cc1c[nH]cn1)NC(=O)[C@H](Cc1ccccc1)NC(=O)OC(C)(C)C)C(O)C(=O)OC(C)C` (some centres unmarked) [Example 1], the IC50 is 1000 nM.
Consider `CC(C)C[C@H](NC(=O)[C@H](Cc1c[nH]cn1)NC(=O)C(Cc1cccc2ccccc12)Cc1cccc2ccccc12)[C@@H](O)C(=O)OC(C)C` [Example 1b, [2R-[2R*,3S*(S*)]]-2-hydroxy-3-[[-3-(1H-imidazol-4-yl)-2-[[3-(1-naphthalenyl)-2-(1-naphthalenylmethyl)-1-oxopropyl]amino]-1-oxopropyl]amino]-5-methylhexanoic acid, 1-methylethyl ester], for which the IC50 was 140 nM.

Source of the values: patent publication US5135914A, “Substituted derivatives of 3-amino-2-hydroxypropionic acid as inhibitors of renin” (Warner-Lambert Company, priority 1988, dated 1992).
